Measured values published in patent US9877937B2, “Compounds and methods for treating aberrant adrenocortical cell disorders” (Millendo Therapeutics, Inc., priority 2012, dated 2018).
Entries after “also recorded” stand apart in the source; their conditions may differ. Structures can show the parent of a compound that is named as a salt. Where two headings read alike, the source gives them in different places.

What was measured:
[1] = system: adrenocortical carcinoma (ACC); conditions: cited from earlier work
[2] = system: xenografts of the human ACC-derived cell line H295R; assay: H295R xenografts in SCID mice, treatment of established tumors (Examples 1 and 2); type: in vivo
Description: To investigate the potential therapeutic effect of ATR-101 in a mouse model of adrenocortical carcinoma (ACC), xenografts of the human ACC-derived cell line H295R in SCID mice (6-7 week males) were established. After the xenografts had grown to measurable size, the mice were randomized in two groups. The treatment group was administered 300 mg/kg/day ATR-101 by oral gavage. The control group was administered the vehicle without ATR-101. The tumor size was measured using calipers before and on the indicated days after starting administration of ATR-101.
To determine if the effects of ATR-101 on ACC-derived cell line xenotransplants were reproducible, the experiment using xenotransplants of the same H295R cell line in SCID mice (10-11 week males) were repeated.

[3] = system: cortisol produced by H295R cells xenografted into SCID mice; assay: Urinary cortisol levels in mice with H295R xenotransplants (DetectX cortisol assay kit); type: in vivo; conditions: 700 then 300 mg/kg/day; from 22 days after cell injection
Description: FIG. 8 depicts the urinary cortisol levels in mice with H295R xenotransplants treated with vehicle or ATR-101. Randomized cohorts of 10 mice injected with H295R cells were administered 700 mg/kg/day ATR-101 for 4 days followed by 300 mg/kg/day ATR-101 or vehicle by gavage beginning 14 days after cell injection. Urine was collected on the days indicated beginning at 22 days after cell injection (8 days after the start of ATR-101 or vehicle administration), and the cortisol levels were determined using a DetectX® cortisol assay kit (Arbor Assays).
(§1) To investigate the potential therapeutic benefit of ATR-101 in the establishment of ACC xenografts in a mouse model of ACC, ACC-derived cell line H295R was injected in SCID mice (6-7 week males). 1×10^8 cells in 0.2 ml DMEM were injected under the skin in the right dorsal flank regions of SCID mice. Two weeks after injection, the mice were randomized in groups of 10. ATR-101 was administered at 700 mg/kg/day for 4 days, followed by 300 mg/kg/day by oral gavage in 10% DMSO, 0.5% CMC, 0.9% NaCl, 0.2% Tween, pH 3. Control mice were administered vehicle. The tumor size was measured using calipers three times a week. Urinary cortisol was measured at various time points after start of ATR-101 or vehicle administration.

adrenal gland [4] = assay: Adrenal gland histopathology in dogs; type: in vivo; conditions: 300 mg/kg/day for 28 days; day 28; hydrochloride
Description: Left and right adrenal glands from dogs treated with a high dose 300 mg/kg/day of ATR-101 for 28 days and control animals were collected at necropsy and fixed in 10% neutral buffered formalin, processed by routine paraffin technique, sectioned longitudinally, and stained with hematoxylin and eosin for routine light microscopy (FIGS. 15A-E).

adrenal gland [5] = assay: Adrenal gland weights in dogs after 28 days; type: in vivo
Description: Left and right adrenal glands from male and female dogs treated with various doses of ATR-101 (0 mg/kg/day, 0.3 mg/kg/day, 3 mg/kg/day, or 30 mg/kg/day) for 28 days were collected at necropsy and weighed. Dose-related changes in adrenal gland weights occurred in both sexes (FIGS. 16A and 17A). Absolute and relative (adrenal-to-body (Adrenal:BW (%)) and adrenal-to-brain (Adrenal:BrW) weight ratios) adrenal weights were decreased 14% to 55% in both sexes at ≧3 mg/kg/day (FIGS. 16A-C and 17A-C). After the 4 week recovery period, adrenal weights remained decreased 6% to 11% in males at 3 mg/kg/day and 10% to 32% in both sexes at 30 mg/kg/day. […] Histologic changes in the adrenal glands persisted after the recovery period.

[6] = Tissue distribution of ATR-101 in rats; type: in vivo; conditions: for Kp at 7 days: rat, female rats, 100 mg/kg/day for 7 days, N=3
Description: (§2) Tissue distribution of ATR-101 in 3 rats and 3 dogs was examined. ATR-101 concentrations were measured in plasma, red blood cells, adrenal gland, liver, kidney, skeletal muscle, ovary, subcutaneous fat, and cerebral spinal fluid. […] ATR-101 concentrations in rats were higher in adrenal gland (˜2×) and ovary (˜1.4×) than in plasma. […] ATR-101 concentrations in dogs were similar in adrenal gland and plasma.

[7] = system: ACC-derived xenotransplants (H295R); assay: High dose ATR-101 on H295R xenotransplants in SCID mice (Example 7); type: in vivo; conditions: 1,000 mg/kg/day oral; 3 mice per group
Excerpt: The effects of a high dose of ATR-101 on ACC-derived xenotransplants in SCID mice were also studied. Xenografts were produced as previously described with 3 mice in the ATR-101 treated group and 3 mice in the control group.

H295R cells [8] = assay: ATP levels of H295R cells (CellTiter-Glo luminescence); type: cell-based, human
Description: (§3) To measure ATP levels and reducing potentials of H295R cells, these cells were cultured in 96-well flat bottom cell culture plates (BD Biosciences) plated at 50,000 cells in 100 μl. The cells were plated in DMEM media without glucose (GIBCO 11966)+10 mM galactose+5 mM sodium-HEPES+2 mM glutamine (addition)+1 mM sodium pyruvate+100 U/ml penicillin/streptomycin+either 0% or 5% fetal calf serum. After overnight (16-20 h) incubation, 20 μl of medium containing 5% fetal calf serum as well as the aliquots of ATR-101 required to produce the final concentrations were added to the cells. To measure ATP levels, 100 μl of the CellTiter-Glo® (Promega Corp., Madison, Wis.) reagent was added to lyse the cells at the indicated times, and luciferin luminescence was measured to determine the amount of ATP in the lysate. To measure reducing activity, PrestoBlue® Cell Viability reagent (Life Technologies Corp.) was added to the cells immediately after ATR-101. The cells were incubated at 37° C. with CO2, and resorufin fluorescence was measured at the times indicated.
To investigate the mechanism whereby ATR-101 kills cells in culture, the effects of cholesterol depletion on the ATP levels of H295R cells cultured in the presence of ATR-101 was investigated. The cells were cultured in the presence of methyl-β-cyclodextrin (MβCD), which can sequester cholesterol and thereby deplete free cholesterol in the cells. […] MβCD increased the concentration of ATR-101 required for half-maximal depletion of ATP levels more than 4-fold.
To determine if the effect of MβCD on ATR-101 cytotoxicity was due to cholesterol depletion, H295R cells were cultured in the presence of the equivalent amount of MβCD complexed with cholesterol (FIG. 12C). […] The protection of H295R cells from the cytotoxicity of ATR-101 by culture in the presence of MβCD was therefore due to cholesterol depletion in these cells.

[9] = system: ACC-derived cell line H295R xenografts; assay: ACC xenograft establishment in SCID mice injected with H295R cells (Example 6); type: in vivo
Description: FIG. 7 depicts the effects of ATR-101 administration on ACC xenograft establishment. Randomized cohorts of 10 mice injected with H295R cells were administered 700 mg/kg/day ATR-101 for 4 days followed by 300 mg/kg/day ATR-101 or vehicle by gavage beginning 14 days after cell injection. The sizes of the xenografts were measured three times each week.
as §1

H295R cells [10] = assay: Reducing activity of H295R cells (resazurin reduction, PrestoBlue); type: cell-based, human
Description: as §3
Cellular reducing activity was determined by measuring resazurin reduction using the PrestoBlue® Cell Viability Reagent (Invitrogen). […] Low to moderate concentrations of ATR-101 increased reducing activity, but had little effect on ATP levels. High concentrations of ATR-101 reduced both reducing activity and ATP levels, presumably because of a decrease in cell viability.
To determine if the culture of H295R cells in the presence of MβCD altered ATR-101 entry into cells, the effects of MβCD on ATR-101 induced changes in reducing activity were examined (FIG. 12D-F). Culture in the presence of MβCD alone had little effect on the reducing activity of the cells (FIG. 12E). […] The reduction in reducing activity was likely related to the reduction in ATP levels caused by MβCD complexed with cholesterol.

[11] = Tissue distribution of ATR-101 in dogs; type: in vivo
Description: as §2

ACTH-stimulated cortisol = assay: Basal and ACTH-stimulated plasma cortisol levels in dogs; type: in vivo
Description: […] 6 dogs/sex/dosage group were studied. […] Plasma cortisol concentrations (ng/ml) in male and female dogs were determined prior to ACTH stimulation and 0.5 and 1 hour after ACTH stimulation.

[12] = target: complex II of the electron transport chain (Homo sapiens, UniProt O14521+P21912+P31040+Q99643); conditions: isolated mitochondria; cited from earlier work
complex II of the electron transport chain, sequence (P31040 43-664): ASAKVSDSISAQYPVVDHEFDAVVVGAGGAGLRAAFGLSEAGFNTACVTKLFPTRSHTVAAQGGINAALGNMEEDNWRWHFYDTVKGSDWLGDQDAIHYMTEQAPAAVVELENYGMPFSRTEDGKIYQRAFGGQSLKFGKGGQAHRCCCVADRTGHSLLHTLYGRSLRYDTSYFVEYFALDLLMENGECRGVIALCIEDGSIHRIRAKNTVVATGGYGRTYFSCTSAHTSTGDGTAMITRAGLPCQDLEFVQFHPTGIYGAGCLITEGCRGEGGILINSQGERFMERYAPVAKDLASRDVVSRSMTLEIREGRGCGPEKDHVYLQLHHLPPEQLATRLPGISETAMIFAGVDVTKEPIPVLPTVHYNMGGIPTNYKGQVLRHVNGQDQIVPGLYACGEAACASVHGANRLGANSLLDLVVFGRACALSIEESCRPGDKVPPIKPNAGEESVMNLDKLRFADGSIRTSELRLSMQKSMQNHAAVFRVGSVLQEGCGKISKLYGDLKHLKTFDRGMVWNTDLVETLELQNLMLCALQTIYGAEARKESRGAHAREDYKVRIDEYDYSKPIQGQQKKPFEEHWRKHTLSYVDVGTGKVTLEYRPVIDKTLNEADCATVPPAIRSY
complex II of the electron transport chain, sequence (P21912 29-280): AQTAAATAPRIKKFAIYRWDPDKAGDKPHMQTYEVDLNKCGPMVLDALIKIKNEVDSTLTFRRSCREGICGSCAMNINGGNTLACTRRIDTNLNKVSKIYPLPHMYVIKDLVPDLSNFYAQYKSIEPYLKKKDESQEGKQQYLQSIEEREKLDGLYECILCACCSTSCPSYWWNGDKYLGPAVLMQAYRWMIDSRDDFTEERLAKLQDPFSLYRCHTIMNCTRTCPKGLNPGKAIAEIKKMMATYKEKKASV
complex II of the electron transport chain, sequence (Q99643 30-169): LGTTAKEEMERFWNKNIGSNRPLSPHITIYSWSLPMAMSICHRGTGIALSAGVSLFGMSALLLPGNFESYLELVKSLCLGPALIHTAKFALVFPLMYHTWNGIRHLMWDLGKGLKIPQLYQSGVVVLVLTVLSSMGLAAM
complex II of the electron transport chain, sequence (O14521 57-159): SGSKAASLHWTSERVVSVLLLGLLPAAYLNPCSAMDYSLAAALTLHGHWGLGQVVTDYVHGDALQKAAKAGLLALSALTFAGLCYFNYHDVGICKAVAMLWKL

## Clc1ccc(C(c2ccccc2Cl)C(Cl)Cl)cc1 (centres unmarked) [mitotane]
[1]; ACC patients
  proportion of patients with increased progression-free survival: one-quarter to one-third
[1]; accumulates in fat tissue
  elimination half-life: months
[1]; patients that derive a therapeutic benefit
  average delay of disease progression: five
[1]; patients
  blood level required for therapeutic benefit: 14 mg/L
  toxic blood level: 20 mg/L

## CC(C)c1cccc(C(C)C)c1NC(=O)NCC1(c2ccc(N(C)C)cc2)CCCC1 [ATR-101, N-(2,6-bis(1-methylethyl)phenyl)-N′-((1-(4-(dimethylamino)phenyl)cyclopentyl)-methyl)urea hydrochloride]
[2]; 300 mg/kg/day oral gavage, 8 days after start, n=3, relative standard deviation 32%, control increased 400%
  decrease in tumor size: 50%
[2]; 300 mg/kg/day, formulation changed after first week
  time to resumption of tumor growth after change to Formulation II: within two days
[2]; 300 mg/kg/day, treatment group, control 2.0
  body condition score (BCS): 3.0
[2]; 15 days after beginning of administration, p<0.05
  tumor size versus control group: significantly smaller
[2]; Example 2
  time to resumption of tumor growth after start of administration: within eight days
[2]; Example 2, 300 mg/kg/day, six days after start, n=2
  tumor size: decreased to undetectable size
[2]; Example 2, 13 days after start
  tumor size as fraction of size of tumors in control mice: one-eighth to one-third
[2]; all mice with tumors smaller than 300 mm^3
  regression of xenograft relative to size before administration: less than half of its size
[2]; both experiments
  time at which tumors exceeded pre-treatment size: 8 to 15 days
  time at which tumors resumed growth after start of administration: 7 to 9 days
  time of maximal therapeutic effect after start of administration: 6 to 8 days
[2]; first experiment, surviving treated mice, SD of the mean 0.13 g, control 1.23 g, p<0.05
  post-mortem tumor weight (mean): 0.71 g
[2]; first experiment, treatment group, SD of the mean 1 g, control 19 g
  total body weight (mean): 24 g
[2]; two mice with tumors of 300 mm^3 and 900 mm^3
  effect on tumor growth in mice with large tumors: did not halt the tumor growth
[3]
  average urinary cortisol levels versus vehicle: lower
Adrenal gland [4]
  adrenal gland histopathology findings: fibrosis; also recorded: vacuolation; also recorded: cortical atrophy
Adrenal gland [5]; after 4 week recovery
  histologic changes in adrenal glands after recovery period: persisted
Adrenal gland [5]; both sexes, ≧3 mg/kg/day
  histologic changes associated with adrenal weight changes: adrenal cortical atrophy, fibrosis, and vacuolation
[6]; adrenal gland (relative to plasma), read-out: adrenal gland concentration relative to plasma
  Kp at 7 days: ~2
[6]; ovary (relative to plasma), read-out: ovary concentration relative to plasma
  Kp at 7 days: ~1.4
[6]; rats
  blood-brain barrier crossing: does not appear to cross the blood-brain barrier
[6]; rats, likely contamination of CSF with blood
  level in cerebral spinal fluid (CSF): Low levels
[7]
  tumor growth versus vehicle treated controls: significantly reduced tumor growth
H295R cells [8]; 64 μM, 4 hours
  reduction of ATP luminescence signal: about 90%
H295R cells [8]; 2 mM MβCD
  increase by MβCD of ATR-101 concentration required for half-maximal depletion of ATP levels: more than 4 fold
H295R cells [8]; 2 mM MβCD, up to 32 μM ATR-101
  ATP levels of cells cultured in presence of MβCD: unaffected
H295R cells [8]; Homo sapiens, NCI-H295R, 4 hours, read-out: concentration with half-maximal effect on ATP luminescence signal
  EC50: 16 µM
H295R cells [8]; MβCD (2 mM) complexed with cholesterol
  ATP level in cells cultured with MβCD complexed with cholesterol: further reduction
[9]; 700 then 300 mg/kg/day
  body weight versus vehicle: no significant difference
  median time until xenograft formation versus vehicle-treated group: more than twice as long
[9]; 100 days after injection
  survival: All the mice were alive
[9]; of 10 mice, 700 mg/kg/day 4 days then 300 mg/kg/day by gavage from 14 days after injection, vehicle 7 of 10
  mice that developed palpable xenografts: 2
[9]; the 2 xenografts, 100 days after injection
  xenograft size: < 500 mm^3
H295R cells [10]; 2 mM MβCD
  reducing activity in cells cultured in presence of MβCD: larger increase in reducing activity
H295R cells [10]; ATR-101 concentrations higher than 8 μM
  resazurin fluorescence signal, higher concentrations: reduced the fluorescence
H295R cells [10]; MβCD complexed with cholesterol, in absence and presence of ATR-101
  reducing activity in cells cultured with MβCD complexed with cholesterol: lower reducing activities
H295R cells [10]; up to 8 μM ATR-101
  resazurin fluorescence signal, low concentrations: increased the fluorescence signal
[11]; dogs
  blood-brain barrier crossing: does not appear to cross the blood-brain barrier
[11]; female dogs, 3 mg/kg/day for 7 days, N=3
  adrenal gland concentration compared with plasma: similar
ACTH-stimulated cortisol; days 42 and 56, drug-free recovery
  cortisol during recovery period: reversal of the cortisol-suppressive effects
ACTH-stimulated cortisol; male and female dogs, 3 mg/kg/day and 30 mg/kg/day, from day 7 through day 14 and day 28
  ACTH responses (plasma cortisol): Marked drug-associated decreases
[12]
  effect on complex II of the electron transport chain: inhibit
